Earlier results as cited in US11291673B2, “Topical doxycycline hydrogel with improved long-term stability” (Nanopharmaceutics, Inc., priority 2019, dated 2022).

Assays:
[1] = test system: mastitis; settings: homogeneous suspension applied to the udder of a cow
[2] = compared to aqueous suspensions containing amphoteric dioxytetracycline
[3] = test system: experimental dry eye (EDE) model

Compound: calcium dioxytetracycline
- alleviation of mastitis [1]: rapid and complete alleviation of mastitis
- stability of suspension [2]: superior stability

Compound: C[C@H]1c2cccc(O)c2C(O)=C2C(=O)[C@]3(O)C(O)=C(C(N)=O)C(=O)[C@H](N(C)C)[C@@H]3[C@@H](O)[C@@H]21 [4-epidoxycycline]
- anti-inflammatory and anti-proteolytic effects [3]: lack of anti-inflammatory and anti-proteolytic effects

Compound: C[C@H]1c2cccc(O)c2C(=O)C2=C(O)[C@]3(O)C(=O)C(C(N)=O)=C(O)[C@@H](N(C)C)[C@@H]3[C@@H](O)[C@@H]21 [Doxycycline monohydrate]
- aqueous solubility (pHs above 6): < 800 µg/mL

Compound: C[C@H]1c2cccc(O)c2C(=O)C2=C(O)[C@]3(O)C(=O)C(C(N)=O)=C(O)[C@@H](N(C)C)[C@@H]3[C@@H](O)[C@@H]21 [Doxycycline]
- solubility (neutral pH): less than 10 mg/ml

Compound: C[C@@H]1c2cccc(O)c2C(O)=C2C(=O)[C@]3(O)C(O)=C(C(N)=O)C(=O)[C@@H](N(C)C)[C@@H]3[C@@H](O)[C@@H]21 [6-epidoxycycline]
- anti-inflammatory and anti-proteolytic effects [3]: lack of anti-inflammatory and anti-proteolytic effects
